The subject of the series is rodent carcinogenicity bioassays, tumor incidence. The series can be described thus: CCRIS carcinogenicity studies. In outline:
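NCI-built, expert-reviewed records of carcinogenicity and related test outcomes (mutagenicity, tumor promotion/inhibition) compiled from published and report sources, historical span 1985-2011, not updated.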

Active and inactive are the calls of the source. How the calls were made is not given here. *1 amine or outer side, *2 acyl side, *3 side chain or, on linkers, in order; H or OH if unused. Where a SMILES comes first, the peptide text is derived from it. Bridges are numbered along the chain shown (N, C = ends). Roman numbers before positions name the chains, in order. [ ]: non-standard residue; d: D form. Actinocin(9to1) = Cc1c2oc3c(C)ccc(C(=O)[*:1])c3nc-2c(C(=O)[*:2])c(N)c1=O; NMeV = CN[C@H](C(=O)O)C(C)C; Sar = CNCC(=O)O

For `Nc1nc(N)c2nc(-c3ccccc3)c(N)nc2n1`, the carcinogen call by setting is: (Species: MOUSE, Strain/Sex: B6C3F1/FEMALE, Route: ORAL, Dose: 0, 100, 200, 400 PPM IN FEED FOR 104 WK (STUDY DURATION: 2 YR), Dose: 0, 100, 200, 400 PPM IN FEED FOR 104 WK (STUDY DURATION: 2 YR), Tumor Site: Type of Lesion: LIVER: HEPATOCELLULAR ADENOMA) “active; positive”; (Species: MOUSE, Strain/Sex: B6C3F1/FEMALE, Route: ORAL, Dose: 0, 400 PPM IN FEED FOR 104 WK (STUDY DURATION: 2 YR), Tumor Site: Type of Lesion: LIVER: HEPATOCELLULAR ADENOMA) “active; positive”; (Species: MOUSE, Strain/Sex: B6C3F1/MALE, Route: ORAL, Dose: 0, 100, 200, 400 PPM IN FEED FOR 104 WK (STUDY DURATION: 2 YR), Dose: 0, 100, 200, 400 PPM IN FEED FOR 104 WK (STUDY DURATION: 2 YR), Tumor Site: Type of Lesion: LIVER: HEPATOCELLULAR CARCINOMA) “active; positive”; (Species: MOUSE, Strain/Sex: B6C3F1/MALE, Route: ORAL, Dose: 0, 400 PPM IN FEED FOR 104 WK (STUDY DURATION: 2 YR), Tumor Site: Type of Lesion: LIVER: HEPATOCELLULAR ADENOMA) “active; positive”; (Species: RAT, Strain/Sex: F344/FEMALE, Route: ORAL, Dose: 0, 150, 300, 600 PPM IN FEED FOR 104 WK (STUDY DURATION: 2 YR), Dose: 0, 150, 300, 600 PPM IN FEED FOR 104 WK (STUDY DURATION: 2 YR)) “inactive; negative”; (Species: RAT, Strain/Sex: F344/MALE, Route: ORAL, Dose: 0, 150, 300, 600 PPM IN FEED FOR 104 WK (STUDY DURATION: 105 WK), Dose: 0, 150, 300, 600 PPM IN FEED FOR 104 WK (STUDY DURATION: 105 WK), Tumor Site: Type of Lesion: LIVER: ADENOMA) “equivocal”.
Take `CCC1(c2ccccc2)C(=O)N=C(O)NC1=O` (stereo unspecified): the carcinogen call (Species: MOUSE, Route: ORAL, Tumor Site: Type of Lesion: LIVER) is “active; positive”; the carcinogen call (Species: MOUSE, Strain/Sex: C3H/HE/MALE, Route: ORAL, Dose: 0, 85 MG/KG/D IN DIET FOR DURATION OF STUDY (STUDY DURATION: 91 WK)) is “inactive; negative”; the carcinogen call (Species: MOUSE, Strain/Sex: C57BL/MALE, Route: ORAL, Dose: 0, 85 MG/KG/D IN DIET FOR DURATION OF STUDY (STUDY DURATION: 100 WK)) is “inactive; negative”; the carcinogen call (Species: RAT, Route: ORAL, Tumor Site: Type of Lesion: LIVER) was “active; positive”; the carcinogen call (Species: RAT, Strain/Sex: F344/MALE, Route: ORAL, Dose: 0, 8, 30, 125, 500 PPM IN DIET FOR 104 WK (STUDY DURATION: 104 WK), Dose: 0, 8, 30, 125, 500 PPM IN DIET FOR 104 WK (STUDY DURATION: 104 WK)) is “inactive; negative”.
Regarding `CC1CN(N=O)CCO1` (stereo unspecified), the carcinogen call (Species: HAMSTER, Strain/Sex: SYRIAN/MALE, Route: INTRAGASTRIC, Dose: 0, 27 MG/ML IN 0.2 ML STERILIZED WATER 1/WK FOR 30 WK (TOTAL DOSE 162 MG) (STUDY DURATION: LIFESPAN), Tumor Site: Type of Lesion: LIVER: HEMANGIOSARCOMA, NASAL CAVITY: CARCINOMA, LUNG: CARCINOMA, ADENOMA, FORESTOMACH: PAPILLOMA, TRACHEA: ADENOMA, Tumor Site: Type of Lesion: LIVER: HEMANGIOSARCOMA, NASAL CAVITY: CARCINOMA, LUNG: CARCINOMA, ADENOMA, FORESTOMACH: PAPILLOMA, TRACHEA: ADENOMA) was “active; positive”.
For `Cc1c2oc3c(C)ccc(C(=O)N[C@@H]4C(=O)N[C@H](C(C)C)C(=O)N5CCC[C@H]5C(=O)N(C)CC(=O)N(C)[C@@H](C(C)C)C(=O)O[C@@H]4C)c3nc-2c(C(=O)N[C@@H]2C(=O)N[C@H](C(C)C)C(=O)N3CCC[C@H]3C(=O)N(C)CC(=O)N(C)[C@@H](C(C)C)C(=O)O[C@@H]2C)c(N)c1=O` (I: T[dV]P[Sar][NMeV] / II: T[dV]P[Sar][NMeV]; ester I:1-I:C, II:1-II:C; linker I:N-II:N via Actinocin(9to1)), the carcinogen call (Species: RAT, Route: INTRAPERITONEAL, Tumor Site: Type of Lesion: PERITONEAL CAVITY) was “active; positive”.
`C=C(C#N)C(=O)OCC(C)C`: the carcinogen call was “active; positive” (Species: RAT, Strain/Sex: F344/FEMALE, Route: IMPLANT, Dose: 0, 10, 100 µL INTO VENTRAL LIVER CAPSULE ONCE (STUDY DURATION: 2 YR), Dose: 0, 10, 100 µL INTO VENTRAL LIVER CAPSULE ONCE (STUDY DURATION: 2 YR), Tumor Site: Type of Lesion: BODY CAVITY: SARCOMA) and “active; positive” (Species: RAT, Strain/Sex: F344/MALE, Route: IMPLANT, Dose: 0, 10, 100 µL INTO VENTRAL LIVER CAPSULE ONCE (STUDY DURATION: 2 YR), Dose: 0, 10, 100 µL INTO VENTRAL LIVER CAPSULE ONCE (STUDY DURATION: 2 YR), Tumor Site: Type of Lesion: BODY CAVITY: SARCOMA).
Take `O=C1NS(=O)(=O)c2ccccc21`: the carcinogen call is, setting by setting: (Species: MONKEY, Strain/Sex: AFRICAN GREEN, RHESUS, CYNOMOLGUS, HYBRID/MALE, FEMALE, Route: ORAL, Dose: 0, 25 MG/KG BW IN FOOD 5 D/WK FOR DURATION OF STUDY (STUDY DURATION: 24 YR)) “inactive; negative”; (Species: RAT, Strain/Sex: ANALBUMINEMIC/MALE, Route: ORAL, Dose: 0, 5% IN DIET FOR 80 WK (STUDY DURATION: 80 WK)) “inactive; negative”; (Species: RAT, Strain/Sex: SPRAGUE-DAWLEY/MALE, Route: ORAL, Dose: 0, 5% IN DIET FOR 80 WK (STUDY DURATION: 80 WK)) “inactive; negative”.
With `NCl`, the carcinogen call is, setting by setting: (Species: MOUSE, Strain/Sex: B6C3F1/FEMALE, Route: ORAL, Dose: 0, 50, 100, 200 PPM IN BUFFERED, CHARCOAL-FILTERED, DEIONIZED WATER FOR 104 WK (STUDY DURATION: 2 YR), Dose: 0, 50, 100, 200 PPM IN BUFFERED, CHARCOAL-FILTERED, DEIONIZED WATER FOR 104 WK (STUDY DURATION: 2 YR)) “inactive; negative”; (Species: MOUSE, Strain/Sex: B6C3F1/MALE, Route: ORAL, Dose: 0, 50, 100, 200 PPM IN BUFFERED, CHARCOAL-FILTERED, DEIONIZED WATER FOR 104 WK (STUDY DURATION: 2 YR), Dose: 0, 50, 100, 200 PPM IN BUFFERED, CHARCOAL-FILTERED, DEIONIZED WATER FOR 104 WK (STUDY DURATION: 2 YR)) “inactive; negative”; (Species: RAT, Strain/Sex: F344/MALE, Route: ORAL, Dose: 0, 50, 100, 200 PPM IN BUFFERED, CHARCOAL-FILTERED, DEIONIZED WATER FOR 103 WK (STUDY DURATION: 2 YR), Dose: 0, 50, 100, 200 PPM IN BUFFERED, CHARCOAL-FILTERED, DEIONIZED WATER FOR 103 WK (STUDY DURATION: 2 YR)) “inactive; negative”.

Source of the values: PubChem BioAssay AID1259411 (Chemical Carcinogenesis Research Information System (CCRIS), 2018).
